Results as given in the supplement of paper PMC10307832.

How the values were obtained:
Test in all cases: relative viability (nuclei count vs DMSO), 5 days (fraction); higher = more cells survive
[1] = compound: C=C(c1ccc(C(=O)O)cc1)c1cc2c(cc1C)C(C)(C)CCC2(C)C [Bexarotene] + CCNC(=O)c1noc(-c2cc(C(C)C)c(O)cc2O)c1-c1ccc(CN2CCOCC2)cc1 [Luminespib] (partner 0.01 µM)
In short: (§1)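 The day after seeding in 1536-well plates, lung cancer cell lines were treated by pin tool with a single drug, or with a fixed anchor-drug dose together with five library-drug doses (not always all listed) in √10 steps. After 5 days, a combined fix-and-stain solution (final 0.05% Triton X-100, 1% formaldehyde, 1 ug/ml Hoechst) was added. Nuclei counted on 4× images gave relative viability as treated counts over vehicle counts, reported as the median of duplicate plates.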

[2] = compound: C=C(c1ccc(C(=O)O)cc1)c1cc2c(cc1C)C(C)(C)CCC2(C)C [Bexarotene] + CS(=O)(=O)N1CCN(Cc2cc3nc(-c4cccc5[nH]ncc45)nc(N4CCOCC4)c3s2)CC1 [Pictilisib] (partner 1 µM)
In short: as §1

[3] = compound: C=C(c1ccc(C(=O)O)cc1)c1cc2c(cc1C)C(C)(C)CCC2(C)C [Bexarotene] + CC(=O)c1c(C)c2cnc(Nc3ccc(N4CCNCC4)cn3)nc2n(C2CCCC2)c1=O [Palbociclib] (partner 0.5 µM)
In short: as §1

[4] = compound: C=C(c1ccc(C(=O)O)cc1)c1cc2c(cc1C)C(C)(C)CCC2(C)C [Bexarotene] + COc1cccc2cc(-c3nc([C@H]4CC[C@H](C(=O)O)CC4)n4ncnc(N)c34)[nH]c12 [OSI-027] (partner 0.5 µM)
In short: as §1

Cell Line	relative viability ([1]; first compound 0.08 µM)	relative viability ([1]; first compound 0.253 µM)	relative viability ([1]; first compound 0.8 µM)	relative viability ([1]; first compound 2.53 µM)	relative viability ([1]; first compound 8 µM)	relative viability ([2]; first compound 0.08 µM)	relative viability ([2]; first compound 0.253 µM)	relative viability ([2]; first compound 0.8 µM)	relative viability ([2]; first compound 2.53 µM)	relative viability ([2]; first compound 8 µM)	relative viability ([3]; first compound 0.08 µM)	relative viability ([3]; first compound 0.253 µM)	relative viability ([3]; first compound 0.8 µM)	relative viability ([3]; first compound 2.53 µM)	relative viability ([3]; first compound 8 µM)	relative viability ([4]; first compound 0.08 µM)	relative viability ([4]; first compound 0.253 µM)	relative viability ([4]; first compound 0.8 µM)	relative viability ([4]; first compound 2.53 µM)	relative viability ([4]; first compound 8 µM)
NCI-H661	0.943	0.9	0.929	0.89	0.89	0.438	0.362	0.397	0.362	0.35	0.407	0.422	0.447	0.401	0.405	0.631	0.665	0.647	0.623	0.635
HCC-366	–	–	–	–	–	0.23	0.178	0.165	0.141	0.29	0.424	0.42	0.365	0.416	0.4	1.2	0.968	0.974	0.888	0.913
HOP-62	1.07	1.1	1.01	1.09	0.978	1.04	0.811	0.684	0.79	0.626	0.502	0.516	0.451	0.409	0.491	0.92	0.841	0.847	0.803	0.802
NCI-H1944	1.45	0.977	0.959	1.11	0.875	0.388	0.391	0.336	0.374	0.37	0.419	0.427	0.369	0.379	0.345	0.616	0.495	0.48	0.476	0.451
SW 1573	0.252	0.216	0.222	0.615	0.242	0.554	0.459	0.447	0.42	0.436	0.362	0.327	0.378	0.354	0.288	0.696	0.58	0.564	0.469	0.471
LU99A	0.268	0.251	0.238	0.291	0.244	0.377	0.407	0.379	0.297	0.323	0.449	0.395	0.355	0.468	0.371	0.325	0.361	0.286	0.316	0.315
NCI-H647	0.148	0.176	0.211	0.134	0.11	0.378	0.356	0.429	–	0.358	0.467	0.358	0.443	0.367	0.369	0.636	0.627	0.601	0.573	0.624
A-427	1.05	0.94	0.999	1.1	0.948	0.79	0.667	0.613	0.537	0.569	0.48	0.47	0.467	0.444	0.487	0.448	0.462	0.455	0.449	0.415
COR-L 105	0.851	0.764	0.812	0.698	0.866	0.473	0.397	0.331	0.385	0.39	0.382	0.368	0.409	0.421	0.392	0.765	0.677	0.818	0.8	0.613
NCI-H441	0.373	0.384	0.314	0.295	0.377	0.628	0.511	0.524	0.482	0.616	0.295	0.228	0.256	0.243	0.23	0.763	0.67	0.645	0.585	0.672
NCI-H2126	0.929	0.843	0.924	0.916	0.823	0.558	0.512	0.462	0.514	0.519	0.354	0.346	0.325	0.331	0.365	0.675	0.71	0.742	0.74	0.683
EBC-1	–	–	–	–	–	0.395	0.481	0.476	0.474	0.475	–	–	–	–	–	–	–	–	–	–
SW 900	0.167	0.17	0.148	0.189	0.163	–	–	–	–	–	0.553	0.41	0.52	0.423	0.411	0.673	0.739	0.739	0.55	0.451
NCI-H522	1.24	1.09	1.17	1.23	0.899	–	–	–	–	–	1.04	0.887	1.07	1.14	1.04	0.722	0.721	0.677	0.706	0.705
NCI-H596	1.08	1.18	1.01	0.983	0.963	0.397	0.441	0.299	0.363	0.426	–	–	–	–	–	0.859	0.69	0.704	0.708	0.634
NCI-H1563	0.518	0.493	0.48	0.524	0.503	0.736	0.647	0.685	0.696	0.661	–	–	–	–	–	0.842	0.787	0.813	0.897	0.849
NCI-H1299	–	–	–	–	–	0.954	0.893	0.661	0.733	0.596	–	–	–	–	–	–	–	–	–	–
NCI-H2342	0.709	0.675	0.747	0.873	0.661	–	–	–	–	–	0.522	0.556	0.525	0.54	0.608	0.612	0.6	0.553	0.686	0.707
A549	–	–	–	–	–	0.59	0.476	0.571	0.507	0.48	–	–	–	–	–	–	–	–	–	–
IA-LM	–	–	–	–	–	0.335	0.314	0.476	0.313	0.319	–	–	–	–	–	–	–	–	–	–
Calu-6	–	–	–	–	–	0.944	0.926	0.911	1.11	0.884	–	–	–	–	–	–	–	–	–	–
